Drawing on BindingDB's records for patent US20230391748 (Rigel Pharmaceuticals, 2023), this text covers IC50 for two compounds.

pIC50: −log10 of the molar value.

The assay concerns the target T1, Interleukin-1 receptor-associated kinase 4 (Homo sapiens, UniProt Q9NWZ3).
T1 sequence (Q9NWZ3 whole entry): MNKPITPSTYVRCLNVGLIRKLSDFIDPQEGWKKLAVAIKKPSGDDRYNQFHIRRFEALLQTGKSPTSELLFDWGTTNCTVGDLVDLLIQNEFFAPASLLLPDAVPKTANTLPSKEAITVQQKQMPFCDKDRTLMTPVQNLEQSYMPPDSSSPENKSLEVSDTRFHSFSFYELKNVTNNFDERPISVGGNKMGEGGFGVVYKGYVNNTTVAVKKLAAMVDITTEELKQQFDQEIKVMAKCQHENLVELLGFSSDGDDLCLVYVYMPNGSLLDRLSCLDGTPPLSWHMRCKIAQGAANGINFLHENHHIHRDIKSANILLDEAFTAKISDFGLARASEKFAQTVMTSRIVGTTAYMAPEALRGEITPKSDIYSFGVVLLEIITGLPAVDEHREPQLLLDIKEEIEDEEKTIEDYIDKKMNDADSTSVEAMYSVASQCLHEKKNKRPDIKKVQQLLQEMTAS
Put plainly: IRAK4 ADP-Glo Assay. The method, then:
The ADP-Glo reagents were thawed at ambient temperature. The Kinase Detection Reagent was prepared by mixing kinase detection buffer with the lyophilized kinase detection substrate, and set aside.A stock volume of 5 Reaction Kinase Buffer was made with a final concentration of 100 mM MgCl2, 200 mM Tris-HCl, and 0.5 mg/ml of BSA, in distilled H2O with a final pH7.4. A 2 working stock volume of Reaction Kinase Buffer was made containing a final concentration of 100 μM DTT.The components of IRAK4 Enzyme were thawed on ice. Diluted IRAK4 in 1 Kinase Reaction Buffer (diluted from 2 buffer) was prepared at 5.0 ng/μl. […] Then diluted 1:5 in 2 Reaction Buffer in a 96 well plate. 1.0 μl was transferred to a 384 well plate in duplicate. […] 1 μl of 1 mg/ml stock solution of MBP substrate was added NOTE: MBP can be combined with ATP mix with equal volume and then added at 2 μl/well. Final reaction volume was 5 μl.The plate was centrifuged and the reaction mixture was incubated at room temperature for 60 minutes or at 30 C. for 30 minutes.The reaction was terminated and the remaining ATP was depleted by adding 5 μl of ADP-Glo Reagent. The 384-well plate was centrifuged and then the reaction mixture was incubated for another 40 minutes at ambient temperature.
Background: ADP-Glo turns the ADP formed in a reaction into a luminescent signal.

Broadly, the pIC50 is the negative decadic logarithm of the IC50, by convention in mol/L. Read a low pIC50 as a high IC50. Turning to `CC(C)Oc1cc2c(OC[C@@H]3CC(F)(F)C(=O)N3)ncc(C#CC3(O)CCN(C(=O)OC(C)(C)C)CC3)c2cc1C(N)=O` [US20230391748, Compound I-52], the negative logarithm of the IC50 (pIC50) is 7.74. Compound `CC(C)Oc1cc2c(O[C@@H]3CCCNC3)ncc(C#CC3(O)CCCC3)c2cc1C(N)=O` [US20230391748, Compound I-85] gave a pIC50 of 7.46.
